Reference: PMC4522657, “Identification of a DYRK1A Inhibitor that Induces Degradation of the Target Kinase using Co-chaperone CDC37 fused with Luciferase nanoKAZ” (Scientific Reports, 2015)
pEC50: −log10 of the molar value.

Experiments:
PIM2 = biological target: T1, PIM2 (Homo sapiens, UniProt Q9P1W9); assay: Kinase panel, CaNDY 1 µM; assay type: biochemical; conditions: CaNDY 1 µM relative to DMSO
T1 construct: purchased Carna Biosciences

PIM1 = biological target: T2, PIM1 (Homo sapiens, UniProt P11309); assay: Kinase panel, CaNDY 1 µM; assay type: biochemical; conditions: CaNDY 1 µM relative to DMSO
T2 construct: purchased Carna Biosciences
T2 sequence (P11309 whole entry): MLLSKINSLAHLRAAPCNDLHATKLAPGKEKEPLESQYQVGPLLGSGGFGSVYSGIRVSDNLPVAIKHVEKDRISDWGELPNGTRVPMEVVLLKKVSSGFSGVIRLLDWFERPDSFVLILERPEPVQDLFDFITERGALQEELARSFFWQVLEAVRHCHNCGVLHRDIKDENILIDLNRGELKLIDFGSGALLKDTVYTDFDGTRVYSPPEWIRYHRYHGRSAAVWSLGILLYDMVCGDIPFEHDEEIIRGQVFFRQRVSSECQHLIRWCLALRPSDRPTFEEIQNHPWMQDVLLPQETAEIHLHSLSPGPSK

CLK1 = CLK1 (Homo sapiens, UniProt P49759); assay: Kinase panel, CaNDY 1 µM; assay type: biochemical; design: purchased Carna Biosciences
Sequence of CLK1 (P49759 whole entry, the tested form may be a part): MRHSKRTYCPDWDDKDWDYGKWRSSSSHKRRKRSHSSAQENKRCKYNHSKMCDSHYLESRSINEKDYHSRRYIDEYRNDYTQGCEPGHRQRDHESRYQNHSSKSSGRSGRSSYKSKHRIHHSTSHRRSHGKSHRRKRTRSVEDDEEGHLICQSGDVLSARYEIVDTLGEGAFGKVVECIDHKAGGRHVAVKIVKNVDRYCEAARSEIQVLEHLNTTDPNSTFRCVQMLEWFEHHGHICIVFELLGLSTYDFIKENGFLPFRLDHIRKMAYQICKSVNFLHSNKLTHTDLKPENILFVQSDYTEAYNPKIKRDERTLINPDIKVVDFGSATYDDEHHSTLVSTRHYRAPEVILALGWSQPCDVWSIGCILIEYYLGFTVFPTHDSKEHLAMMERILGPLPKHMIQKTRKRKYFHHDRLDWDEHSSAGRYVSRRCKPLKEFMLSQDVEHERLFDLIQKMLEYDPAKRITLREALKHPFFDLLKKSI
From the text: Detailed information on the assay conditions is available on the website of Carna Biosciences (http://www.carnabio.com/english/index.html; Kobe, Japan). In brief, full-length human recombinant kinases were expressed using a baculovirus expression system as amino-terminal GST-fusion proteins, and purified by glutathione-Sepharose chromatography. The GenBank accession numbers of DYRK1A, DYRK1B, DYRK2, and DYRK3 were NP_001387.2, NP_004705.1, NP_003574.1, and NP_003573.2. […] For each compound, a DMSO solution was diluted in assay buffer to yield a final concentration of 1% DMSO. After incubation for one hour at room temperature, substrate phosphorylation was analyzed by electrophoretic separation of the substrate and products using a Caliper LC3000 platform (Caliper Life Sciences, Mountain View, CA, USA). The phosphorylated product (P)/(P + substrate) ratio was calculated at each concentration of each small molecule and the percent inhibition was expressed relative to a control assay in the absence of the small molecule. […] The IC50 of each compound was calculated by interpolation on a log-concentration-response curve fitted with a four-parameter logistic equation.
All kinase assays were carried out at Carna Biosciences. The inhibitory map was made with Kinome Render[36].

CK2α = biological target: T3, CK2α (Homo sapiens, UniProt P68400); assay: Western blot of kinase expression in HEK293 cells; assay type: cell-based; conditions: CaNDY 2 μM, 4 days
T3 construct: endogenous in cells; host or cells: HEK293
T3 sequence (P68400 whole entry): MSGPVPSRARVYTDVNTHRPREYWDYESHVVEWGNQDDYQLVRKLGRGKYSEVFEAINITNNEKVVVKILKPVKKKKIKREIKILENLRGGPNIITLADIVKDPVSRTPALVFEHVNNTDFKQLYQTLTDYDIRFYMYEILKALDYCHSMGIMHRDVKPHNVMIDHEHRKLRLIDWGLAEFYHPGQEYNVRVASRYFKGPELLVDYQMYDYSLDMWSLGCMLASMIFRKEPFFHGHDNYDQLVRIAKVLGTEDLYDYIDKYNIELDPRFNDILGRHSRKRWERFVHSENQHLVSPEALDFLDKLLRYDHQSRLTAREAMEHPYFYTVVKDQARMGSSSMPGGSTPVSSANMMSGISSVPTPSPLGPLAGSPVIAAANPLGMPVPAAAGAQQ
Method: To check selectivity of CaNDY for other kinases, we first examined protein expression of several kinases in HEK293 cells treated with CaNDY (2 μM) for 4 days. […] Third, protein expression of these kinases targeted by CaNDY (DYRK1A, DYRK1B, CLK1, and Haspin) was reassessed by Western blot analysis as performed in Fig. 7b.
Western blot analysis was performed using the antibodies described above. In brief, total cell lysates were separated by SDS-PAGE (5–20% gels; ATTO, Tokyo, Japan) under reducing conditions and then transferred to a PVDF membrane (PALL, SP, Brazil). Antibody reactions were performed with Can Get Signal® Immunoreaction Enhancer Solution (Toyobo). Peroxidase activities on the membrane were visualized with ECL Western Blotting Detection Reagents (GE Healthcare) or ImmunoStar® LD (Wako Pure Chemical Industries, Osaka, Japan), and a ChemiDoc^TM MP Imaging System (Bio-Rad, Hercules, CA, USA).

MAP2K6_Cascade = biological target: T4, MAP2K6_Cascade (Homo sapiens, UniProt P52564); assay: Kinase panel, CaNDY 1 µM; assay type: biochemical; conditions: CaNDY 1 µM relative to DMSO
T4 construct: purchased Carna Biosciences
T4 sequence (P52564 whole entry): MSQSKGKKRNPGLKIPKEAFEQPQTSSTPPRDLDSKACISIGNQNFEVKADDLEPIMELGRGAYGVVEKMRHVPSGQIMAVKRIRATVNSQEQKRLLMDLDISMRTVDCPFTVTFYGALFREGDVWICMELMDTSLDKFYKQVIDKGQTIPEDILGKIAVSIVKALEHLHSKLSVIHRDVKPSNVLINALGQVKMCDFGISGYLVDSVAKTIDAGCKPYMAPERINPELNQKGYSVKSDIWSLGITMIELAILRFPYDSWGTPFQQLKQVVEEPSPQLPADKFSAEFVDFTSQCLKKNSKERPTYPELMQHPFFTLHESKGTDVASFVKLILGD

FGFR3(K650E) = biological target: T5, FGFR3(K650E) (Homo sapiens, UniProt P22607, K650E); assay: Kinase panel, CaNDY 1 µM; assay type: biochemical; conditions: CaNDY 1 µM relative to DMSO
T5 construct: purchased Carna Biosciences
T5 sequence (P22607 23-806 K650E): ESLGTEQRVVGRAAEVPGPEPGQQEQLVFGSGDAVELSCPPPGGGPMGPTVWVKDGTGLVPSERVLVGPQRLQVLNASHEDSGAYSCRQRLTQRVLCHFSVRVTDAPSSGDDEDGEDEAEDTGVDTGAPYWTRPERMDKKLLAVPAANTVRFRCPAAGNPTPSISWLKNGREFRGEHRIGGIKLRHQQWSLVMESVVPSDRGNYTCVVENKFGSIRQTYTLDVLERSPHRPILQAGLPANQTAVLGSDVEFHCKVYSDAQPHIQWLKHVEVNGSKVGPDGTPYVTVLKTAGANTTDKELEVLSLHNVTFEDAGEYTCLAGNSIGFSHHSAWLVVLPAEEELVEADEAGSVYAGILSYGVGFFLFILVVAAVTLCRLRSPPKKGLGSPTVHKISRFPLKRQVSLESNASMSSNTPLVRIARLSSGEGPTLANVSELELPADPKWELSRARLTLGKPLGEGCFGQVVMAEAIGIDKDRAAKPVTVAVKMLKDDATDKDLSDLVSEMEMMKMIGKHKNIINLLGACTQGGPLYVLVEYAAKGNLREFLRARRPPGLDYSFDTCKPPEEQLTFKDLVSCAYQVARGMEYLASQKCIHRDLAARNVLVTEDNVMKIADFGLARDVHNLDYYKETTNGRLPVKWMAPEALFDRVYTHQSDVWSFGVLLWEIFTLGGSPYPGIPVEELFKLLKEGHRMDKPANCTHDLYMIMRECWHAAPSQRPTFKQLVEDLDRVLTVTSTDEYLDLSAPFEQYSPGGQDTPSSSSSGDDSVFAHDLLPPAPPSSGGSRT

EGFR(d746-750/T790M) = biological target: T6, EGFR(d746-750/T790M) (Homo sapiens, UniProt P00533, DEL746-750/T790M); assay: Kinase panel, CaNDY 1 µM; assay type: biochemical; conditions: CaNDY 1 µM relative to DMSO
T6 construct: purchased Carna Biosciences

GSK3α = biological target: T7, GSK3α (Homo sapiens, UniProt P49840); assay: Kinase panel, CaNDY 1 µM; assay type: biochemical; conditions: CaNDY 1 µM relative to DMSO
T7 construct: purchased Carna Biosciences
T7 sequence (P49840 whole entry): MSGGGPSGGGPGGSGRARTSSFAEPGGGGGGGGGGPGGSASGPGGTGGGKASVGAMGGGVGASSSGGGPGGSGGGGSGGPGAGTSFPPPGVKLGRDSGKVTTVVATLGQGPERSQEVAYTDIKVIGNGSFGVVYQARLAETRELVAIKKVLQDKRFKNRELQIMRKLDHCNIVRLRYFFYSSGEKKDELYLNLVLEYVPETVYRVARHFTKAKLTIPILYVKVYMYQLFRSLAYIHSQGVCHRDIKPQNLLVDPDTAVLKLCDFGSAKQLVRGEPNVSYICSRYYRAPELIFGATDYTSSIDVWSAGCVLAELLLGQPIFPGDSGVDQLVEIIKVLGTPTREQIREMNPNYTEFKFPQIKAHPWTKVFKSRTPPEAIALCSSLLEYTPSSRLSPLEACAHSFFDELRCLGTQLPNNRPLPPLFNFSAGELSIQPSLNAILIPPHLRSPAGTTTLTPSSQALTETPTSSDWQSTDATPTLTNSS

[1] = biological target: T8, interaction of CDC37-nanoKAZ with 3xFLAG-DYRK1A (Y319F/Y321F) (Homo sapiens, UniProt Q13627, Y319F/Y321F); assay: CDC37-nanoKAZ binding assay (ELISA of the CDC37-nanoKAZ interaction) in 293T cells; assay type: cell-based
T8 construct: F2A peptide linking to EGFP (2A skipping releases EGFP; a 2A remnant may stay on DYRK1A) (C); expressed in transfected cells; host or cells: 293T cells stably expressing CDC37-nanoKAZ, transiently transfected with pcDNA5/FRT/TO 3xFLAG-DYRK1A (Y319F/Y321F)
Method: The cells were then treated with the indicated concentrations of small molecules for one hour. Cell lysates were added to FLAG antibody-coated 96-well plates and luminescence intensities were measured. The amount of bound 3xFLAG-DYRK1A was measured using a HRP-conjugated antibody against FLAG. The relative Imax for CDC37-nanoKAZ was normalized using the amount of bound protein.
Stable cell lines transfected with expression vectors for 3xFLAG-tagged DYRK family kinases and its mutants were lysed in ice-cold HENG buffer (50 mM HEPES-KOH, pH 7.9, 150 mM NaCl, 20 mM Na2MoO4, 2 mM EDTA, 5% Glycerol, 0.5% TritonX-100) containing protease inhibitor cocktail (Nacalai Tesque) on ice. […] The wells were wash three times with ice-cold HENG buffer and then a luminescence assay was performed.
The luminescence activity of the cell lysates was determined using a Centro LB 960 Microplate Luminometer (Berthold Technologies, Bad Wildbad, Germany). A reaction mixture containing bis-coelenterazine (final concentration of 0.1–1 μg/100 μL) in PBS containing 0.02% Tween20 and 20 mM EDTA was injected. The luminescence intensity was recorded at 0.1 s intervals for 10 s or 10 min. The maximum luminescence intensity (Imax), represented in relative luminescence units (rlu), was used in the study.
After measuring the luminescence intensities, the wells were washed three times with HENG buffer, and incubated with HRP-conjugated anti-FLAG antibody diluted with PBS containing […] and 2% fetal bovine serum at 37 °C for one hour. After extensive washing, […] Super Sensitive One Component HRP Microwell Substrate (SurModics, Eden Prairie, MN, USA) was added into the well and the reaction was stopped with sulfuric acid. Absorbance at 450 nm was measured with ARVO X5 (PerkinElmer). The relative amount of protein bound on the well was estimated from the absorbance.
In Supporting Figure S1a, the values of Imax are shown in kinetics plots. In Figs 2c,e, 3c, S1d, S3, and S4, the relative luminescence intensities are shown as the fold-change in the Imax values of the samples relative to Imax with EGFP. In Figs 4, 5a,c and 6c, the relative luminescence intensities were normalized to the amount of the bound 3xFLAG-DYRK1A mutant and calculated as the fold-change relative to the value at 0 μM of the compounds.
Small molecules in our original synthetic chemical library, including unpublished small molecule inhibitors of DYRK1A and its structural derivatives (data not shown), were added to the 96-well plates containing the transfected cells at a final concentration of 4 μM. The cells were then processed as described above.

MAP3K2_Cascade = biological target: T9, MAP3K2_Cascade (Homo sapiens, UniProt Q9Y2U5); assay: Kinase panel, CaNDY 1 µM; assay type: biochemical; conditions: CaNDY 1 µM relative to DMSO
T9 construct: purchased Carna Biosciences
T9 sequence (Q9Y2U5 whole entry): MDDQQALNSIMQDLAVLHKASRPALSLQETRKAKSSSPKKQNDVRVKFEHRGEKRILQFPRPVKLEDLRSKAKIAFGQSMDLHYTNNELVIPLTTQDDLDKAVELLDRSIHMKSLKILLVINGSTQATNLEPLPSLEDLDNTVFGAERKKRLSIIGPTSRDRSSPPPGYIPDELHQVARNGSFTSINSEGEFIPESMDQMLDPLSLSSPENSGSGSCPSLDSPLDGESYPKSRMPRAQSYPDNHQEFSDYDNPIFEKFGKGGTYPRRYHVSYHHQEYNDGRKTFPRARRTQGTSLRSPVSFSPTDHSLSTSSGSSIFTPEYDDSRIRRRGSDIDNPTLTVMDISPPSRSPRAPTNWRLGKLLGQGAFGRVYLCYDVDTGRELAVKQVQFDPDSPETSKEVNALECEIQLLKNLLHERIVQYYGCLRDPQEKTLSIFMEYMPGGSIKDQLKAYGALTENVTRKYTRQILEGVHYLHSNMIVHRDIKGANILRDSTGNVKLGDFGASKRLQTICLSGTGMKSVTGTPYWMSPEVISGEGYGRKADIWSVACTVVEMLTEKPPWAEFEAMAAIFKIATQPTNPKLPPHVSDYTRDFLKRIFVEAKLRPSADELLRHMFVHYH

PLK2 = biological target: T10, PLK2 (Homo sapiens, UniProt Q9NYY3); assay: Kinase panel, CaNDY 1 µM; assay type: biochemical; conditions: CaNDY 1 µM relative to DMSO
T10 construct: purchased Carna Biosciences
T10 sequence (Q9NYY3 whole entry): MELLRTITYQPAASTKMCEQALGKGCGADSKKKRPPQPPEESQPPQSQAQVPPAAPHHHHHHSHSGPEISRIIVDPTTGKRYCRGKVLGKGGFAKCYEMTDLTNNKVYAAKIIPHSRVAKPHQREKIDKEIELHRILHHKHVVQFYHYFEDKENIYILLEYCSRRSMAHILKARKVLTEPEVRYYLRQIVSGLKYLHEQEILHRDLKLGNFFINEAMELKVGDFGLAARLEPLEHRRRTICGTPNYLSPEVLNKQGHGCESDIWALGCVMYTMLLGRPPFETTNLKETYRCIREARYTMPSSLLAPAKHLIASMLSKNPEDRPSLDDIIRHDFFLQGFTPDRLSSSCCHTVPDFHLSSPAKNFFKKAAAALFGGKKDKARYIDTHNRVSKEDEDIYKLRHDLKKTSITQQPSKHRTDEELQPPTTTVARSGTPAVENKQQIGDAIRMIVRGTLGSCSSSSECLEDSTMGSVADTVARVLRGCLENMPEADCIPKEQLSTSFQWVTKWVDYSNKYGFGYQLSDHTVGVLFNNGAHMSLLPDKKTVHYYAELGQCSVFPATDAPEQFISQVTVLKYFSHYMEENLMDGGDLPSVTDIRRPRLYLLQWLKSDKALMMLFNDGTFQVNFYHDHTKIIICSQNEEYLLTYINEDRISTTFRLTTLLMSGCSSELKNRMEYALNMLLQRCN

T1 sequence (Q9P1W9 whole entry): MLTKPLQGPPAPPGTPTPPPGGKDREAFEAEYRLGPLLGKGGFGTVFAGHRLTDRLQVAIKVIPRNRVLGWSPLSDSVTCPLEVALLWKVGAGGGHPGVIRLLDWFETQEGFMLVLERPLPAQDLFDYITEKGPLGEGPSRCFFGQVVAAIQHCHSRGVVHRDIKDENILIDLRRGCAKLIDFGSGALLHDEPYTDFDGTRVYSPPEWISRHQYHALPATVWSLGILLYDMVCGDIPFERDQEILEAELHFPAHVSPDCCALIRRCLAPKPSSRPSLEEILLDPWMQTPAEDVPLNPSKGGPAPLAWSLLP

## [H]/N=C1/NC(=O)C(=Cc2ccc3c(c2)CCO3)S1 [CaNDY, (Z)-5-[(2,3-dihydrobenzofuran-5-yl)methylene]-2-iminothiazolidin-4-one]
PIM2
  remaining activity at 1 µM: 71.6%
PIM1
  remaining activity at 1 µM: 36.5%
CLK1; CLK1, CaNDY 1 µM relative to DMSO
  %Activity: 3.0%
CLK1; read-out: percentage inhibition
  inhibition at 1 µM: > 90%
CK2α
  protein expression of CK2α: did not decrease
MAP2K6_Cascade
  remaining activity at 1 µM: 99.5%
FGFR3(K650E)
  remaining activity at 1 µM: 101%
EGFR(d746-750/T790M)
  %Activity: 101.0%
GSK3α
  remaining activity at 1 µM: 76.6%
[1]; 293T cells stably expressing CDC37-nanoKAZ, treated one hour, read-out: EC50, decrease of relative luminescence intensity
  pEC50: 6.39
[1]; compounds at 4 μM, 253 compounds
  relative luminescence intensity in library screen: decreased the luminescence intensity to the lowest level
MAP3K2_Cascade
  remaining activity at 1 µM: 102%
PLK2
  %Activity: 95.9%
